Laboratory results published in patent US7195752B2, “Surfactant compounds and uses thereof” (Glaxo Group Limited, priority 2001, dated 2007).

Experiments:
[1] = Content uniformity by dose through use testing of salmeterol xinafoate HFA 134a inhalers; type: physicochemical; details: 10% w/w surfactant
Procedure: (§1) Salmeterol xinafoate formulations in HFA 134a, of strength 25 μg per actuation, and 10% w/w (relative to drug) of the relevant surfactant compound of formula (I) were prepared using salmeterol xinafoate (5.8 mg), HFA 134a (12 g) and the relevant compound (0.58 mg). The control was prepared without the addition of a surfactant.
The content uniformity of the formulation, the preparation of which is described above, was assessed by dose through use testing. Testing was performed on 10 cans/inhalers at “beginning of use” (BoU) and “end of use” (EoU). After each inhaler had been primed (4 shots fired to waste), actuations 1 and 2 (BoU) were collected. The next 116 actuations of each inhaler were then fired to waste using an automated method and actuations 119 and 120 (EoU) collected.
The assesment of content uniformity was performed intially (following sample preparation). The results are quoted in Table 2 as the mean of the two BoU actuations for 10 inhalers (1+2 for 10 inhalers) and the mean of two EoU actuations for the said 10 inhalers (119+120 for the same 10 inhalers) together with the percentage relative standard deviation (% RSD).

[2] = Particle size by image analysis (Galai CIS-100) of salmeterol xinafoate HFA 134a suspension; type: physicochemical; details: salmeterol xinafoate 25 μg per actuation in HFA 134a, 10% w/w (relative to drug) surfactant; mean of 4 determinations
Procedure: as §1
In this measurement, particle size is represented as the equivalent diameter of a circle of equal area to the object. The mean is the average of 4 determinations. The particle size measurement was obtained by transferring the suspensions to a presurised cell, and video-imaging the sample under shear via a microscope objective.
The equivalent diameter is defined as the diameter of a circle of equal area to the object.
The mean equivalent diameter can be weighted by number, length or volume. e.g. For three particles with equivalent diameters of x, y and z: […]

**Q.** Which “rise in dose from beginning to end of use” value ([1]; EoU minus BoU dose, 10 inhalers, salmeterol xinafoate in HFA 134a) does the source give for `O=C(O)COCCCCCCC(F)(F)C(F)(F)F` [Example 5, [(7,7,8,8,8-Pentafluorooctyl)oxy]acetic acid] here?
**A.** 1.8 µg

**Q.** What about the BoU dose ([1]; beginning of use, mean of actuations 1+2 for 10 inhalers, salmeterol xinafoate 25 μg per actuation in HFA 134a, initial) of the same compound?
**A.** 19.0 µg

**Q.** What about the EoU dose ([1]; end of use, mean of actuations 119+120 for 10 inhalers, salmeterol xinafoate 25 μg per actuation in HFA 134a, initial) of the same compound?
**A.** 21.8 µg

**Q.** And the “Mean Length weighted diameter” value [2]?
**A.** 13.8 μm
